# Measurements published in US8193191B2, “Urotensin II receptor antagonists” (Janssen Pharmaceutica N.V., priority 2006, dated 2012).
# Where two headings read alike, the source gives them in different places.
# Columns and labels:
# [1] = target: T1, Human UII receptor, 6D9 human rhabdomyosarcoma cells (Homo sapiens, UniProt Q9UKP6); assay: Human UII Calcium Mobilization Assay; format: cell-based; settings: average value, FLIPR TETRA, read-out: Human UII Ca^+ Mobilization Average IC50
# T1 construct: 6D9: isolated by dilution subcloning of RMS13 cells, ATCC® Number: CRL-2061; host or cells: 6D9 human rhabdomyosarcoma cells (subclone of RMS13)
# T1 sequence (Q9UKP6 1-389): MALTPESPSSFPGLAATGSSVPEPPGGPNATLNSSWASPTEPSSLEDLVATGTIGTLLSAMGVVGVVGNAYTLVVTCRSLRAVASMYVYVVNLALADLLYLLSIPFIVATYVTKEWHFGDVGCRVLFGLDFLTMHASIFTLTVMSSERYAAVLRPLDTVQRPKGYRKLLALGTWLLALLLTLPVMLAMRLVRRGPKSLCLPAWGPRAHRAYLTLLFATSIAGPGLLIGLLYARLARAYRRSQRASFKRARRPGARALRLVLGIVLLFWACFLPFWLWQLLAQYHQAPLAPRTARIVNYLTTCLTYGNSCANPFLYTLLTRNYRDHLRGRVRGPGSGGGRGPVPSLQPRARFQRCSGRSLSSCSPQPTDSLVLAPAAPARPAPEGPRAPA
# Summary of the method: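 FLIPR calcium responses were recorded for 4 minutes after room-temperature addition of test antagonist and U-II, in dye-loaded human 6D9 cells (37° C, 45 min; HBSS/HEPES with probenecid 1.25 mM). Compounds serially diluted in HBSS/HEPES, up to 0.1% DMSO; curves gave IC50 and EC50.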
# [2] = target: T2, rat GPR14 (U-II receptor) (Rattus norvegicus, UniProt P49684); assay: Rat UII Calcium Mobilization FLIPR Assay; format: cell-based; settings: average value for the compound tested; read-out: Rat UII FLIPR Average IC50
# T2 construct: expressed in transfected cells
# T2 sequence (P49684 1-386): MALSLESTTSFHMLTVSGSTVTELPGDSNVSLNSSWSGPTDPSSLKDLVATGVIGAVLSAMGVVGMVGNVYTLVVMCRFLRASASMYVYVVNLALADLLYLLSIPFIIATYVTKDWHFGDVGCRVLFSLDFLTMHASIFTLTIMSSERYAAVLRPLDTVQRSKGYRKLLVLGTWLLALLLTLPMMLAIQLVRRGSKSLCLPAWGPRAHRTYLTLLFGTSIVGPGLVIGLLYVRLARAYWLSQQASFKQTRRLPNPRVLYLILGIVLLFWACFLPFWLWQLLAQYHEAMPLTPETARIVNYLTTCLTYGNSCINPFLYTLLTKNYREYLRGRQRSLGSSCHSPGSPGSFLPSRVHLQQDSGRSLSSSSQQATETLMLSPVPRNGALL
# Summary of the method: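 Fluorescent calcium signals were recorded at room temperature (23° C) by FLIPR. Stable rat U-II receptor CHO lines had been dye-loaded for 1 h at 37° C in pH 7.4 HBSS containing 20 mM HEPES, 0.1% BSA and 2.5 mM probenecid.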
# [3] = target: T3, endogenous human UII receptor (Homo sapiens, UniProt Q9UKP6); assay: Human Radioligand Binding Assay ((^125I)-U-II binding to human skeletal muscle myoblasts)
# T3 sequence (Q9UKP6 1-389): T1 sequence (Q9UKP6 1-389)
Compound,IC50 [1],IC50 [2],"Ki ([3]; read-out: Human UII Average Binding Ki, average value, (^125I)-U-II binding to human skeletal muscle myoblasts (HSMM), 25° C., 3 h)",Ki [3]
"COc1ccc([C@@H](CCCNS(=O)(=O)c2cccs2)N2C(=O)c3cccc(N4CCN(C)CC4)c3C2=O)cc1OC [Cpd 169, (R)-thiophene-2-sulfonic acid {4-(3,4-dimethoxy-phenyl)-4-[4-(4-methyl-piperazin-1-yl)-1,3-dioxo-1,3-dihydro-isoindol-2-yl]-butyl}-amide]",220 nM,16 nM,59 nM,
"COc1ccc([C@@H](CCCNS(=O)(=O)c2cccs2)N2C(=O)c3cccc(N4CCN(Cc5ccoc5)CC4)c3C2=O)cc1OC [Cpd 170, (R)-thiophene-2-sulfonic acid {4-(3,4-dimethoxy-phenyl)-4-[4-(4-furan-3-ylmethyl-piperazin-1-yl)-1,3-dioxo-1,3-dihydro-isoindol-2-yl]-butyl}-amide]",410 nM,8.4 nM,,31 nM
"COc1ccc([C@@H](CCCNS(=O)(=O)c2cccs2)N2C(=O)c3cccc(N4CCN(Cc5cccnc5)CC4)c3C2=O)cc1OC [Cpd 171, (R)-thiophene-2-sulfonic acid {4-(3,4-dimethoxy-phenyl)-4-[1,3-dioxo-4-(4-pyridin-3-ylmethyl-piperazin-1-yl)-1,3-dihydro-isoindol-2-yl]-butyl}-amide]",1000 nM,11 nM,,370 nM
"COc1ccc([C@@H](CCCNS(=O)(=O)c2cccs2)N2C(=O)c3cccc(N4CCN(Cc5ccsc5)CC4)c3C2=O)cc1OC [Cpd 172, (R)-thiophene-2-sulfonic acid {4-(3,4-dimethoxy-phenyl)-4-[1,3-dioxo-4-(4-thiophen-3-ylmethyl-piperazin-1-yl)-1,3-dihydro-isoindol-2-yl]-butyl}-amide]",220 nM,11 nM,,26 nM
"COc1ccc([C@@H](CCCNC(=O)C2CCOC2)N2C(=O)c3cccc(N4CCN([C@H](C)c5ccccc5)CC4)c3C2=O)cc1OC (stereo partly drawn) [Cpd 173, (R)-tetrahydro-furan-3-carboxylic acid (4-(3,4-dimethoxy-phenyl)-4-{1,3-dioxo-4-[4-(1R)-(1-phenyl-ethyl)-piperazin-1-yl]-1,3-dihydro-isoindol-2-yl}-butyl)-amide]",800 nM,11 nM,,66 nM
"COc1ccc([C@@H](CCCNC(=O)C(C)C)N2C(=O)c3cccc(N4CCN([C@H](C)c5ccccc5)CC4)c3C2=O)cc1OC [Cpd 174, (R)-N-(4-(3,4-dimethoxy-phenyl)-4-{1,3-dioxo-4-[4-(1R)-(1-phenyl-ethyl)-piperazin-1-yl]-1,3-dihydro-isoindol-2-yl}-butyl)-isobutyramide]",620 nM,11 nM,,19 nM
"COCC(=O)NCCC[C@H](c1ccc(OC)c(OC)c1)N1C(=O)c2cccc(N3CCN([C@H](C)c4ccccc4)CC3)c2C1=O [Cpd 175, (R)-N-(4-(3,4-dimethoxy-phenyl)-4-{1,3-dioxo-4-[4-(1R)-(1-phenyl-ethyl)-piperazin-1-yl]-1,3-dihydro-isoindol-2-yl}-butyl)-2-methoxy-acetamide]",410 nM,6.1 nM,,26 nM
"CCCC(=O)NCCC[C@H](c1ccc(OC)c(OC)c1)N1C(=O)c2cccc(N3CCN([C@H](C)c4ccccc4)CC3)c2C1=O [Cpd 176, (R)-N-(4-(3,4-dimethoxy-phenyl)-4-{1,3-dioxo-4-[4-(1R)-(1-phenyl-ethyl)-piperazin-1-yl]-1,3-dihydro-isoindol-2-yl}-butyl)-butyramide]",850 nM,13 nM,,24 nM
"COCCC(=O)NCCC[C@H](c1ccc(OC)c(OC)c1)N1C(=O)c2cccc(N3CCN([C@H](C)c4ccccc4)CC3)c2C1=O [Cpd 177, (R)-N-(4-(3,4-dimethoxy-phenyl)-4-{1,3-dioxo-4-[4-(1R)-(1-phenyl-ethyl)-piperazin-1-yl]-1,3-dihydro-isoindol-2-yl}-butyl)-3-methoxy-propionamide]",1100 nM,7.1 nM,,93 nM
